Laboratory results: patent US8895733B2 (Novartis AG, priority 2010, dated 2014)

Target: T1, Nav 1.7 (Homo sapiens, UniProt Q15858)
T1 construct: expressed in transfected cells
Test: Whole-cell voltage clamp electrophysiology, automated patch clamp (marker c in Table of Examples)
Assay type: cell-based
Conditions: marker c = Automated patch clamp data; read-out: Nav 1.7 activity
Method in brief: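 A voltage protocol weighted toward inactivated-state block was used to test compounds on stably expressing cells, with pulses from −65 mV holding to −10 mV test and −100 mV. Currents came from whole-cell automated patch-clamp recordings, either IonWorks Quattro or other automated instruments, usually in perforated-patch mode.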

T1 sequence (Q15858 whole entry): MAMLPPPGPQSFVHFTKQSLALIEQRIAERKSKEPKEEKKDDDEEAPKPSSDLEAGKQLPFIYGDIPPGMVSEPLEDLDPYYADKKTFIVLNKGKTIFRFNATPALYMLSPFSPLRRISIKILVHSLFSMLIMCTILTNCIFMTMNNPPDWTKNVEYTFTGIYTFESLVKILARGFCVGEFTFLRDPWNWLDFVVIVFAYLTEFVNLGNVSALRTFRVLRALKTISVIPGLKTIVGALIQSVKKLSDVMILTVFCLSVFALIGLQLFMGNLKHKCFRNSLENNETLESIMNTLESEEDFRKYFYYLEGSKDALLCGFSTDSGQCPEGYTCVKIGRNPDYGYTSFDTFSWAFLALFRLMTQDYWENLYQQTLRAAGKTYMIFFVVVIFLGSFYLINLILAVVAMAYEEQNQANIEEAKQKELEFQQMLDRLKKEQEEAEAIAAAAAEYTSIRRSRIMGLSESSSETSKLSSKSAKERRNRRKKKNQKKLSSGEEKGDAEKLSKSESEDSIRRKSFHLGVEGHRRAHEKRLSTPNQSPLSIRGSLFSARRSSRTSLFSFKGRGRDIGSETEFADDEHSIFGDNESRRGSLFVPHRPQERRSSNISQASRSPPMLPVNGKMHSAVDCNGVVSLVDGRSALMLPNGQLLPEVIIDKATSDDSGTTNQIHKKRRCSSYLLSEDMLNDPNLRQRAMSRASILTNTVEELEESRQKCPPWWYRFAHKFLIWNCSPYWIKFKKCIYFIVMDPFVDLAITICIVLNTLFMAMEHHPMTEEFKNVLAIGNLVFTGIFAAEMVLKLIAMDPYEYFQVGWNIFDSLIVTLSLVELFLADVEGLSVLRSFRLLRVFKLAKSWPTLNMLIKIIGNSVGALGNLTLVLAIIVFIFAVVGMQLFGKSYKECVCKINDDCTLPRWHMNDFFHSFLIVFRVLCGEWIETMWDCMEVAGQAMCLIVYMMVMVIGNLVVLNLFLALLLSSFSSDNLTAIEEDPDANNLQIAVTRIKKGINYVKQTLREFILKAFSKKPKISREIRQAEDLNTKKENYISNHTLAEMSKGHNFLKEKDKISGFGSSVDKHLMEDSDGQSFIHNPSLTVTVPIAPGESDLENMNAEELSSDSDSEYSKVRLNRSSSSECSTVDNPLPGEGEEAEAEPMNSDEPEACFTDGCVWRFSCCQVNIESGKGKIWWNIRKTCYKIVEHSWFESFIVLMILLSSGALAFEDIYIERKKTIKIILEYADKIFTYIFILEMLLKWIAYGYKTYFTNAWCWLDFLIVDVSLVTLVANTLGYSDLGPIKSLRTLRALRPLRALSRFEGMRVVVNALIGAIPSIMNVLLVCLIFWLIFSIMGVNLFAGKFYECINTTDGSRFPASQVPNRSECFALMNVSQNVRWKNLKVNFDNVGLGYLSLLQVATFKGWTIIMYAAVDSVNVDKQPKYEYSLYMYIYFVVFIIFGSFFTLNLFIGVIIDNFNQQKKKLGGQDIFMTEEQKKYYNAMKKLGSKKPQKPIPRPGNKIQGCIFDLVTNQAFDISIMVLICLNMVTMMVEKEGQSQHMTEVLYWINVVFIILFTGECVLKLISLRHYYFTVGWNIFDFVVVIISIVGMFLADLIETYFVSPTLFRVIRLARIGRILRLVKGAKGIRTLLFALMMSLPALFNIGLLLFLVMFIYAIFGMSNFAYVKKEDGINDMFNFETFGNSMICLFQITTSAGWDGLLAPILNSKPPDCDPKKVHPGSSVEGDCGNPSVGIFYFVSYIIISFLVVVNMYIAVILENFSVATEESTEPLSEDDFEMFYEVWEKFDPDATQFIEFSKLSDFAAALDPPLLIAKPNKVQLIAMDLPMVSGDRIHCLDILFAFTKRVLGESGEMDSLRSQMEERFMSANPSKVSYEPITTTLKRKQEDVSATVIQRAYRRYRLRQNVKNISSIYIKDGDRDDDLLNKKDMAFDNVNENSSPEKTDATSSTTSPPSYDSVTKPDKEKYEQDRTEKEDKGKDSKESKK

Row | IC50 | SMILES
1 | 386 nM | CN(c1ccccc1)c1nc(N)nc(-c2noc(-c3ncccc3C(=O)OC3CCCC3)n2)n1 [Example 379, cyclopentyl 2-(3-{4-amino-6-[methyl(phenyl)amino]-1,3,5-triazin-2-yl}-1,2,4-oxadiazol-5-yl)pyridine-3-carboxylate]
2 | 83 nM | CN(c1ccccc1)c1nc(N)nc(-c2noc(-c3cccnc3C(=O)OC3CCCC3)n2)n1 [Example 380, cyclopentyl 3-(3-{4-amino-6-[methyl(phenyl)amino]-1,3,5-triazin-2-yl}-1,2,4-oxadiazol-5-yl)pyridine-2-carboxylate]
3 | 4930 nM | CN(c1ccccc1)c1nc(N)nc(-c2noc(-c3ncccc3C(=O)NCC(F)(F)F)n2)n1 [Example 381, 2-(3-{4-amino-6-[methyl(phenyl)amino]-1,3,5-triazin-2-yl}-1,2,4-oxadiazol-5-yl)-N-(2,2,2-trifluoroethyl)pyridine-3-carboxamide]
4 | 4810 nM | CN(c1ccccc1)c1nc(N)nc(-c2noc(C3CN(C(=O)OC(C)(C)C)C3)n2)n1 [Example 382, tert-butyl 3-(3-{4-amino-6-[methyl(phenyl]amino]-1,3,5-triazin-2-yl}-1,2,4-oxadiazol-5-yl)azetidine-1-carboxylate]
5 | 1540 nM | CN(c1ccccc1)c1nc(N)nc(-c2noc(C3CN(Cc4ccccc4)C3)n2)n1 [Example 383, 6-[5-(1-benzylazetidin-3-yl)-1,2,4-oxadiazol-3-yl]-2-N-methyl-2-N-phenyl-1,3,5-triazine-2,4-diamine]
6 | > 8590 nM | CC(=O)N1CC(c2nc(-c3nc(N)nc(N(C)c4ccccc4)n3)no2)C1 [Example 384, 1-[3-(3-{4-Amino-6-[methyl(phenyl)amino]-1,3,5-triazin-2-yl}-1,2,4-oxadiazol-5-yl)azetidin-1-yl]ethan-1-one]
7 | 2210 nM | CN(c1ccccc1)c1nc(N)nc(-c2noc(C3CN(CCC(F)(F)F)C3)n2)n1 [Example 385, 2-N-methyl-2-N-phenyl-6-{5-[1-(3,3,3-trifluoropropyl)azetidin-3-yl]-1,2,4-oxadiazol-3-yl}-1,3,5-triazine-2,4-diamine]
8 | > 9980 nM | CN(c1ccccc1)c1nc(N)nc(-c2noc([C@H]3[C@@H]4C(=O)N(Cc5ccccc5)C(=O)[C@@H]43)n2)n1 [Example 386, (1R,5S,6S)-6-(3-{4-Amino-6-[methyl(phenyl)amino]-1,3,5-triazin-2-yl}-1,2,4-oxadiazol-5-yl)-3-benzyl-3-azabicyclo[3.1.0]hexane-2,4-dione]
9 | 1420 nM | CN(c1ccccc1)c1nc(N)nc(-c2noc(N3C[C@@H]4[C@@H](COCC(F)(F)F)[C@@H]4C3)n2)n1 [Example 387, 2-N-methyl-2-N-phenyl-6-{5-[6-[(2,2,2-trifluoroethoxy)methyl]-3-azabicyclo[3.1.0]hexan-3-yl]-1,2,4-oxadiazol-3-yl}-1,3,5-triazine-2,4-diamine]
10 | 2810 nM | CN(c1ccccc1)c1nc(N)nc(-c2noc(N3CCN(S(=O)(=O)N(C)C)CC3)n2)n1 [Example 388, 4-(3-{4-amino-6-[methyl(phenyl)amino]-1,3,5-triazin-2-yl}-1,2,4-oxadiazol-5-yl)-N,N-dimethylpiperazine-1-sulfonamide]
11 | 5990 nM | CN(c1ccccc1)c1nc(N)nc(-c2noc(N3CCN(S(=O)(=O)CC(F)(F)F)CC3)n2)n1 [Example 389, 2-N-methyl-2-N-phenyl-6-(5-{4-[(2,2,2-trifluoroethane)sulfonyl]piperazin-1-yl}-1,2,4-oxadiazol-3-yl)-1,3,5-triazine-2,4-diamine]
12 | 702 nM | Nc1nc(Nc2ccccc2)nc(-c2noc(N3C[C@@H]4[C@@H](COCC(F)(F)F)[C@@H]4C3)n2)n1 [Example 390, 2-N-phenyl-6-{5-[6-[(2,2,2-trifluoroethoxy)methyl]-3-azabicyclo[3.1.0]hexan-3-yl]-1,2,4-oxadiazol-3-yl}-1,3,5-triazine-2,4-diamine]
13 | 539 nM | CN(c1ccccc1)c1nc(N)nc(-c2noc(N3CC4C(COc5ccccc5)C4C3)n2)n1 (stereo not shown) [Example 391, 2-N-methyl-6-{5-[6-(phenoxymethyl)-3-azabicyclo[3.1.0]hexan-3-yl]-1,2,4-oxadiazol-3-yl}-2-N-phenyl-1,3,5-triazine-2,4-diamine]
14 | 433 nM | Nc1nc(Nc2ccccc2)nc(-c2noc(N3CC4C(COc5ccccc5)C4C3)n2)n1 (stereo not shown) [Example 392, 6-{5-[6-(phenoxymethyl)-3-azabicyclo[3.1.0]hexan-3-yl]-1,2,4-oxadiazol-3-yl}-2-N-phenyl-1,3,5-triazine-2,4-diamine]
15 | 884 nM | Nc1nc(Nc2ccccc2)nc(-c2noc(N3C[C@@H]4[C@@H](COCC5CC5)[C@@H]4C3)n2)n1 [Example 393, 6-{5-[6-[(cyclopropylmethoxy)methyl]-3-azabicyclo[3.1.0]hexan-3-yl]-1,2,4-oxadiazol-3-yl}-2-N-phenyl-1,3,5-triazine-2,4-diamine]
16 | 664 nM | Nc1nc(Nc2ccccc2)nc(-c2noc(N3C[C@@H]4[C@@H](COCCC(F)(F)F)[C@@H]4C3)n2)n1 [Example 394, 2-N-phenyl-6-{5-[6-[(3,3,3-trifluoropropoxy)methyl]-3-azabicyclo[3.1.0]hexan-3-yl]-1,2,4-oxadiazol-3-yl}-1,3,5-triazine-2,4-diamine]
17 | 2660 nM | CN(c1ccccc1)c1nc(N)nc(-c2noc(N3C[C@@H]4[C@@H](COCC5CC5)[C@@H]4C3)n2)n1 [Example 395, 6-{5-[6-[(cyclopropylmethoxy)methyl]-3-azabicyclo[3.1.0]hexan-3-yl]-1,2,4-oxadiazol-3-yl}-2-N-methyl-2-N-phenyl-1,3,5-triazine-2,4-diamine]
18 | 1130 nM | CN(c1ccccc1)c1nc(N)nc(-c2noc(N3C[C@@H]4[C@@H](COCCC(F)(F)F)[C@@H]4C3)n2)n1 [Example 396, 2-N-methyl-2-N-phenyl-6-{5-[6-[(3,3,3-trifluoropropoxy)methyl]-3-azabicyclo[3.1.0]hexan-3-yl]-1,2,4-oxadiazol-3-yl}-1,3,5-triazine-2,4-diamine]
19 | 3940 nM | CC(C)OC[C@@H]1[C@H]2CN(c3nc(-c4nc(N)nc(N(C)c5ccccc5)n4)no3)C[C@@H]12 [Example 397, 2-N-methyl-2-N-phenyl-6-{5-[6-[(propan-2-yloxy)methyl]-3-azabicyclo[3.1.0]hexan-3-yl]-1,2,4-oxadiazol-3-yl}-1,3,5-triazine-2,4-diamine]
20 | 691 nM | CC(C)OC[C@@H]1[C@H]2CN(c3nc(-c4nc(N)nc(Nc5ccccc5)n4)no3)C[C@@H]12 [Example 398, 2-N-phenyl-6-{5-[(1R,5S,6S)-6-[(propan-2-yloxy)methyl]-3-azabicyclo[3.1.0]hexan-3-yl]-1,2,4-oxadiazol-3-yl}-1,3,5-triazine-2,4-diamine]
21 | 620 nM | CN(c1ccccc1)c1nc(N)nc(-c2noc(N3C[C@@H]4[C@@H](COC5CCCC5)[C@@H]4C3)n2)n1 [Example 399, 6-{5-[6-[(cyclopentyloxy)methyl]-3-azabicyclo[3.1.0]hexan-3-yl]-1,2,4-oxadiazol-3-yl}-2-N-methyl-2-N-phenyl-1,3,5-triazine-2,4-diamine]
22 | 292 nM | Nc1nc(Nc2ccccc2)nc(-c2noc(N3C[C@@H]4[C@@H](COC5CCCC5)[C@@H]4C3)n2)n1 [Example 400, 6-{5-[6-[(cyclopentyloxy)methyl]-3-azabicyclo[3.1.0]hexan-3-yl]-1,2,4-oxadiazol-3-yl}-2-N-phenyl-1,3,5-triazine-2,4-diamine]
